Experimental data from patent US11724980B2, “Quinones having high capacity retention for use as electrolytes in aqueous redox flow batteries” (President and Fellows of Harvard College, priority 2018, dated 2023).
In brackets after ≈: the same amount, converted by molar mass. Where two headings read alike, the source gives them in different places. Each block holds one molecule with its values, some of them ahead of it.

Experiments:
[1] = Unbalanced compositionally-symmetric cell cycling; settings: for temporal fade rate: 0.10 M, pH 12 (0.01 M KOH)
Protocol: As a direct probe of the effect of O-alkylation of anthraquinone on its chemical stability, 2,6-DBEAQ was cycled potentiostatically in a volumetrically unbalanced compositionally-symmetric cell configuration.
Potentiostatic symmetric cell cycling was performed according to a reported procedure^8 in order to assess the temporal chemical stability of DBEAQ, independent of any variations in apparent capacity as a result of changes to membrane resistance, and in a configuration where there is negligible water or reactant crossover due to the same DBEAQ concentration being used in both electrolytes. […] 5 mL of the resulting electrolyte was used as the capacity-limiting side of a volumetrically unbalanced compositionally-symmetric cell, while the remaining 10 mL was used as the non-capacity-limiting side, i.e., with twice the nominal capacity of the capacity-limiting side. […].
The cycling stability of the DPPEAQ electrolyte was also studied by a previously published symmetric cell method.^24 Although the oxidized form of DPPEAQ is readily soluble at pH 9, proton-coupled electron transfer raises the pH of the electrolyte when it is reduced. Such pH fluctuations can produce misleading results in symmetric cell testing unless the starting pH is above the cutoff point for proton-coupled electron transfer.

physchem [2] = format: physicochemical; settings: for solubility: thermodynamic from solid
Protocol: Solubility limits of all DBEAQ isomers were measured in their oxidized forms by adding the potassium salt of DBEAQ (prepared by reacting DBEAQ with potassium hydroxide in water) until no further solid could be dissolved. After filtering the mixture through a PTFE 0.45 μm syringe filter, a saturated solution of DBEAQ in KOH was obtained. The saturated solution was then diluted by a known amount, and the concentration was evaluated by UV-Vis (Ocean Optics Flame-S Spectrometer Assembly) at 280 and 364 nm. […]
The solubility limit of DPPEAQ was measured in the oxidized form by adding the potassium salt of DPPEAQ (prepared by reacting DPPEAQ with potassium hydroxide in water) until no further solid could be dissolved. The mixture was adjusted to pH 9. After filtering the mixture through a PTFE 0.45 μm syringe filter, a saturated solution of DPPEAQ at pH 9 was obtained. The saturated solution was then diluted by a known amount while maintaining a pH of 9, and the concentration was evaluated by UV-Vis (Agilent Cary 60 spectrophotometer). The concentration was calculated according to a pre-calibrated absorbance-concentration curve of known concentrations of DPPEAQ at pH 9.

[3] = pH 14 KOH, literature (ref 3); cited from earlier work
[4] = previous study (ref 3/17); cited from earlier work
[5] = cited from earlier work
[6] = cited from earlier work; remark: listed apart in the source
[7] = CV simulation as two one-electron reductions; format: physicochemical; settings: same AQ:AQ2− ratio, from E1-E2 separations
Protocol: FIG. 6. Capacitance-corrected CV of 5 mM 2,6-DBEAQ in 1 M KOH (solid grey line). The dashed red line represents the simulated total current arising from two successive one-electron reductions with reduction potentials of −0.517 and −0.511 V vs. SHE, according to the procedure outlined in a previous publication.^1 Each simulated reduction has a rate constant ko=7×10^−3 cm/s and α=0.5.
A first CV experiment was performed in which 2,6-DBEAQ was dissolved in pH 14 KOH solution at a concentration of 5 mM. CV measurements were plotted in FIG. 5A and include results for the isomers of 2,6-DBEAQ.
Following our previous study on 2,6-DHAQ^17 and literature reports^1,18 on quinone electrochemistry in the absence of proton donors, we simulated the CV of 2,6-DBEAQ as representing two reversible electron transfer steps at two different potentials E1 and E2. The separation between simulated redox potentials for the first (E1) and second (E2) electron reductions for 2,6-DBEAQ is considerably narrower than the corresponding peak separation for 2,6-DHAQ^17 (6 mV vs. 60 mV).
The pH dependence of the proton-coupled electron transfer (POET) redox reaction for a generalized anthraquinone (AQ) is often visualized by the nine-membered square scheme (FIG. 7). The horizontal direction indicates electron transfer (ET), and the vertical direction indicates proton transfer (PT or protonation). Under strongly alkaline conditions, where the pH is higher than the second pKa (pKa2) of the reduced AQ (AQ^2−), no protonation of the semiquinone anion will take place, and reduction proceeds via two ET steps, from AQ to a semiquinone (AQ-^●) at E1, and from AQ-^● to AQ^2− at E2 which is typically <E1. Depending on the value of E1-E2, the mechanism of AQ reduction in alkaline conditions can either be a concerted one-step, two-electron process or two single-electron processes. […]

[8] = Rotating disk electrode study with Levich analysis; format: physicochemical; settings: 5 mM in 1 M KOH, Levich plot
Protocol: Glassy carbon was used as the working electrode for all three-electrode CV tests. RDE experiments were conducted using a Pine Instruments Modulated Speed Rotator AFMSRCE equipped with a 5 mm diameter glassy carbon working electrode, a Ag/AgCl reference electrode (BASi, pre-soaked in 3 M NaCl solution), and a graphite counter electrode. The electrode was rotated at a specific speed while the voltage was linearly swept from −0.4 to −0.11 V vs. Ag/AgCl (FIG. 4A). […]. RDE experiments were conducted using a Pine Instruments Modulated Speed Rotator AFMSRCE equipped with a 5 mm diameter glassy carbon working electrode, a Ag/AgCl reference electrode (BASi, pre-soaked in a 3 M KCl solution), and a graphite counter electrode. […]

[9] = Cyclic voltammetry on glassy carbon electrode; format: physicochemical
Protocol: Glassy carbon was used as the working electrode for all three-electrode CV tests. RDE experiments were conducted using a Pine Instruments Modulated Speed Rotator AFMSRCE equipped with a 5 mm diameter glassy carbon working electrode, a Ag/AgCl reference electrode (BASi, pre-soaked in 3 M NaCl solution), and a graphite counter electrode. The electrode was rotated at a specific speed while the voltage was linearly swept from −0.4 to −0.11 V vs. Ag/AgCl (FIG. 4A). […].
A second CV experiment was performed in which 2,6-DBEAQ was dissolved in pH 14 KOH solution at a concentration of 2 mM. CV measurements were plotted in FIG. 4C. The standard equilibrium potential was determined to be −0.49 V vs. SHE. The separation between the peaks in the CV curves was 42 mV, indicating fairly rapid and reversible electrochemical reactions at the surface of the electrodes.

physchem [10] = format: physicochemical; settings: 0.1 M
Protocol: FIGS. 24A-24D. Comparison of the stability of DPPEAQ with respect to alkyl chain cleavage to that of 2,6-DBEAQ at pH 14. ^1H NMR spectra (500 MHz, 10 mM NaCH3SO3 internal standard, δ 2.6 ppm) of (A) DPPEAQ at pH 14; (B) DPPEAQ at pH 14, treated for 5.5 days at 95° C. and 0.1 M concentration; (C) 2,6-DBEAQ at pH 14; (D) 2,6-DBEAQ at pH 14, treated for 5.5 days at 95° C. and 0.1 M concentration. […] The relative integrals and splitting of the peaks in the spectra of DPPEAQ after treatment are consistent with the products of (3-hydroxypropyl)phosphonate cleavage. Samples of DPPEAQ at 0.1 M concentration and pH 14 in both the oxidized and reduced form were stored in FEP bottles and heated in an oven at 65° C. for 2 weeks. The extent of decomposition was determined by ^1H NMR, with peak integrals measured relative to an internal standard of NaCH3SO3 prepared at 10 mM concentration in D2O.
By performing elevated temperature chemical stability studies, we have identified that the cleavage of γ-hydroxybutyrate is involved in the decomposition of the oxidized form of 2,6-DBEAQ (FIGS. 10A-10C and FIGS. 11A-11D), and we have characterized the time course of γ-hydroxybutyrate cleavage at pH 12 and pH 14 and at 0.1 M and 0.5 M concentration (FIG. 12 and FIGS. 13A-13C). […]; these observations are consistent with long redox flow battery lifetime at typical operating cell conditions.
We designed an analogue of 2,6-DBEAQ but with phosphonate-terminated functional groups, DPPEAQ, appearing to deliver both of these desired outcomes.
The differing relative stabilities of DPPEAQ and 2,6-DBEAQ at pH 12 (at 95° C. and 0.1 M concentration), in contrast to the similar extent of their observed decomposition at pH 14, may be due to a competition between multiple decomposition mechanisms that vary in a pH-dependent manner. The concentration of hydroxide ions at pH 14 is tenfold higher than the concentration of either molecule at 0.1 M, as opposed to tenfold lower at pH 12. In particular, we propose a hydroxide-mediated nucleophilic substitution reaction (SNAr or SN2) that dominates the decomposition of both molecules at pH 14. However, at a lower pH of 12, an intramolecular reaction with carboxylate acting as the nucleophile dominates in the decomposition of 2,6-DBEAQ, while no analogous intramolecular reaction of DPPEAQ at pH 12 can take place due to much weaker nucleophilicity of bulked phosphonate compared with carboxylate. The difference in the dominant mechanisms of 2,6-DBEAQ decomposition at pH 12 and 14 that we are proposing is also consistent with the observation that the initial rate of degradation is not 100-fold slower at pH 12 relative to pH 14. […] In addition, the operability at lower pH serves to decrease the corrosion of battery systems and enable the use of less expensive materials.

SMILES: O=C(O)CCCOc1ccc2c(c1OCCCC(=O)O)C(=O)c1ccccc1C2=O [1,2-DBEAQ]
- temporal fade rate [1]: greater than 0.1 %/day
- Solubility (M) at pH 14 (pH 12) (physchem [2]): 0.9 M

SMILES: O=C(O)CCCOc1cccc2c1C(=O)c1c(OCCCC(=O)O)cccc1C2=O [1,8-DBEAQ]
- temporal fade rate [1]: > 10 %/day
- Solubility (M) at pH 14 (pH 12) (physchem [2]): 0.75 M

- temporal capacity fade rate ([1]; pH 14 (1 M KOH), 0.10 M (2,6-DBEAQ also 0.65 M)): 5 %/day
- Keq_comp for semiquinone formation, times higher than for 2,6-DBEAQ [7]: 2.83 times
- solubility (physchem [2]; pH 12, aqueous buffer): 100 mM (≈ 24 mg/mL)
- solubility (physchem [2]; pH 14, aqueous buffer): 60 mM (≈ 14.4 mg/mL)
SMILES: O=C1c2ccc(O)cc2C(=O)c2ccc(O)cc21 [2,6-DHAQ, 2,6-dihydroxyanthraquinone]
- room temperature solubility [3]: 600 mM
- E1-E2 separation [4]: 60 mV
- reduction potential ([5]; comparison value for 2,6-DHAQ): −680 mV vs. SHE
- redox peak separation ([5]; literature (ref 3)): ~90 mV
- capacity fade rate ([6]; reported (refs 21,22)): 5 %/day

SMILES: O=C1c2ccc(S(=O)(=O)O)cc2C(=O)c2ccc(S(=O)(=O)O)cc21 [AQDS, 9,10-anthraquinone-2,6-disulfonate]
- temporal fade rate ([6]; lowest previously reported quinone-based electrolyte (refs 10,11)): 0.1-0.2 %/day

SMILES: O=C1c2ccc(OCCCP(=O)(O)O)cc2C(=O)c2ccc(OCCCP(=O)(O)O)cc21 [DPPEAQ, (((9,10-dioxo-9,10-dihydroanthracene-2,6-diyl)bis(oxy))bis(propane-3,1-diyl))bis(phosphonic acid)]
- capacity fade ([1]; 0.1 M, pH 13, cycled 6 days): 0.02 %/day
- diffusion coefficient for the oxidized form [8]: 1.37×10^−6 cm^2/s
- pH above which the potential is pH-independent ([9]; Pourbaix diagram): ~12.4
- redox potential (E1/2) ([9]; buffered pH 9): −0.39 V vs. SHE
- redox potential (E1/2) ([9]; buffered pH 12): −0.47 V vs. SHE
- Pourbaix diagram slope ([9]; fit to data below pH 12): −30 mV/pH
- redox potential (E1/2) ([9]; pH 9 unbuffered aqueous solution): −0.47 V vs. SHE
- redox potential (E1/2) ([9]; pH 12 unbuffered aqueous solution): −0.49 V vs. SHE
- decomposition (physchem [10]; pH 9, 6 days at 95° C.): no significant decomposition
- decomposition (physchem [10]; pH 12, 6 days at 95° C.): no significant decomposition
- decomposition (physchem [10]; pH 14, 5.5 days at 95° C.): 45%
- chemical stability of the reduced form (physchem [10]; pH 14, 12 days at 65° C.): robust chemical stability
- solubility (physchem [2]; pH 9, aqueous buffer, pH 9, read-out: solubility of the oxidized form): 750 mM (≈ 363 mg/mL)
